ChEMBL document CHEMBL1139308, “Identification and synthesis of 2,7-diamino-thiazolo[5,4-d]pyrimidine derivatives as TRPV1 antagonists” (Bioorg Med Chem Lett, 2009)
In brackets after ≈: the same amount, converted by molar mass. One block for each molecule: values may come before it. Activity calls are given as the source filed them. The calls are words filed in the database; no cut-off is given here.

Legend:
[1] = target: T1, Transient receptor potential cation channel subfamily V member 1 (Homo sapiens, UniProt Q8NER1); assay: Antagonist activity at human TRPV1 expressed in HEK293 cells assessed as inhibition of capsaicin-induced calcium flux; assay type: functional, cell-based
T1 sequence (Q8NER1 whole entry): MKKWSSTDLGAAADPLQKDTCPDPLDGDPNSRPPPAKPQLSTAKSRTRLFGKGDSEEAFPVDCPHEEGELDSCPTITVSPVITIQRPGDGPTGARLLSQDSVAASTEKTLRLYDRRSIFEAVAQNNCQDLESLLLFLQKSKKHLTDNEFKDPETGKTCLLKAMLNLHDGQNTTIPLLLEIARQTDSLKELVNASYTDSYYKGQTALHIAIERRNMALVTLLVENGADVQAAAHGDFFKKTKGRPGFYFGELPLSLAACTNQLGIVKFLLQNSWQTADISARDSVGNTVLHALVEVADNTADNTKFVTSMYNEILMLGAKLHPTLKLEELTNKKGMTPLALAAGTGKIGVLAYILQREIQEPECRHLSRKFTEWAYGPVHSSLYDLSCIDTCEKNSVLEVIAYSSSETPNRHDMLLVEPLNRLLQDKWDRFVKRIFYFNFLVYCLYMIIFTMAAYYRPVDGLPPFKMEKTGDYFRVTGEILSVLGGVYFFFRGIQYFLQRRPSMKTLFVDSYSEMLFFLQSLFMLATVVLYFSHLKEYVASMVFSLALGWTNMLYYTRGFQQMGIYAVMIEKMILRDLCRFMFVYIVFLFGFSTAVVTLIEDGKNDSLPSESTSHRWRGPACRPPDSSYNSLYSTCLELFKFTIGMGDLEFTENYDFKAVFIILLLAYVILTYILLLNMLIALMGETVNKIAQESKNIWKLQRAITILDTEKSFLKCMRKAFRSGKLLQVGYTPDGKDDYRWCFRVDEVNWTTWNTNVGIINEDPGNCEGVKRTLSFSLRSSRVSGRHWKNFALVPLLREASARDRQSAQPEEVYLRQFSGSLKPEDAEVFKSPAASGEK

[2] = target: T2, Transient receptor potential cation channel subfamily V member 1 (Rattus norvegicus, UniProt O35433); assay: Antagonist activity at rat TRPV1 expressed in HEK293 cells assessed as inhibition of capsaicin-induced calcium flux; assay type: functional, cell-based
T2 sequence (O35433 whole entry): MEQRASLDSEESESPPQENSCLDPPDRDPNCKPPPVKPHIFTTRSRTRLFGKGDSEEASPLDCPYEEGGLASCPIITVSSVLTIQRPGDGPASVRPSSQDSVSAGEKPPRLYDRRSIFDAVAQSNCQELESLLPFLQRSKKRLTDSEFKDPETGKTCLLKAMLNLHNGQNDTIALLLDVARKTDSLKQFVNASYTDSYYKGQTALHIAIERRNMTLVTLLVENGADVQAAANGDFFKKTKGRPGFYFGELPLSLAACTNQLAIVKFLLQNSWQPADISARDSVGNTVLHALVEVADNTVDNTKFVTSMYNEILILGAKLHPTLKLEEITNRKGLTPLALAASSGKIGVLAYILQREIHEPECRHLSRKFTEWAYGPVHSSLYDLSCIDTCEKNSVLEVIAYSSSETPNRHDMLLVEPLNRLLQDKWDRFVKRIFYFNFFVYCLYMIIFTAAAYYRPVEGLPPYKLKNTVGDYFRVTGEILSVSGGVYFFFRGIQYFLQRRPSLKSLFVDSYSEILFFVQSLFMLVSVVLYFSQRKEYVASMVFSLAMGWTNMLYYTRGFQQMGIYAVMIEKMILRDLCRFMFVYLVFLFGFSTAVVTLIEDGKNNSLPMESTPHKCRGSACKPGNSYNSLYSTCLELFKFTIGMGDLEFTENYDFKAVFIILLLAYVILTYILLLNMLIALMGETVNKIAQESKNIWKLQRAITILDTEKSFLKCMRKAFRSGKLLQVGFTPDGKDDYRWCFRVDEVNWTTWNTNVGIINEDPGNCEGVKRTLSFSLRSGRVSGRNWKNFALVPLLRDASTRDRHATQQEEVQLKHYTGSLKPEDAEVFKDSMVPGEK

[3] = test system: Rattus norvegicus; assay: Analgesic activity in rat model assessed as inhibition of carrageenan-induced thermal hyperalgesia at 1 mg/kg, po administered 1 hr prior carrageenan challenge relative to control; assay type: functional, organism-based; design: dose 1 mg/kg
[4] = test system: Rattus norvegicus; assay: AUC (0 to infinity) in fasted Sprague-Dawley rat at 5 mg/kg, po; assay type: ADME, organism-based, Plasma; design: time infinity, dose 5 mg/kg, route oral; conditions: in vivo
[5] = test system: Rattus norvegicus; assay: Analgesic activity in rat model assessed as inhibition of carrageenan-induced thermal hyperalgesia at 30 mg/kg, po administered 1 hr prior carrageenan challenge relative to control; assay type: functional, organism-based; design: dose 30 mg/kg
[6] = Aqueous solubility in fasted-state simulated intestinal fluid at pH 6.8 after 3 days by HPLC; assay type: physicochemical
[7] = test system: Rattus norvegicus; assay: Analgesic activity in rat model assessed as inhibition of carrageenan-induced thermal hyperalgesia at 0.3 mg/kg, po administered 1 hr prior carrageenan challenge relative to control; assay type: functional, organism-based; design: dose 0.3 mg/kg
[8] = test system: Rattus norvegicus; assay: Clearance in fasted Sprague-Dawley rat at 1 mg/kg, iv and 5 mg/kg, po; assay type: ADME, organism-based; conditions: in vivo
[9] = species: Rattus norvegicus; assay: Suppression of KCl-induced rat bladder contraction at 100 nM; assay type: functional, tissue-based; conditions: Urinary bladder
[10] = test system: Rattus norvegicus; assay: Bioavailability in fasted Sprague-Dawley rat at 1 mg/kg, iv and 5 mg/kg, po; assay type: ADME, organism-based; conditions: in vivo
[11] = Cmax in fasted Sprague-Dawley rat at 5 mg/kg, po; assay type: ADME, organism-based; design: dose 5 mg/kg, route oral; conditions: in vivo
[12] = Plasma concentration in carrageenan-induced thermal hyperalgesia rat model at 30 mg/kg, po after 5 hrs post-carrageenan injection; assay type: ADME, organism-based; design: dose 30 mg/kg, route oral
[13] = Plasma concentration in carrageenan-induced thermal hyperalgesia rat model at 0.3 mg/kg, po after 5 hrs post-carrageenan injection; assay type: ADME, organism-based; design: dose 0.3 mg/kg, route oral
[14] = target: T2, Transient receptor potential cation channel subfamily V member 1; assay: Antagonist activity at rat TRPV1 expressed in HEK293 cells assessed as inhibition of low pH-induced calcium influx; assay type: functional, cell-based
[15] = Tmax in fasted Sprague-Dawley rat at 5 mg/kg, po; assay type: ADME, organism-based; design: dose 5 mg/kg, route oral; conditions: in vivo
[16] = target: Transient receptor potential cation channel subfamily V member 1 (Rattus norvegicus) (UniProt O35433); assay: Antagonist activity at rat TRPV1 assessed as fold increase in EC50 of capsaicin-induced isometric contraction in rat bladder at 100 nM; assay type: functional
Sequence of Transient receptor potential cation channel subfamily V member 1 (Rattus norvegicus) (O35433 whole entry): as above

[17] = test system: Rattus norvegicus; assay: Analgesic activity in rat model assessed as maximum degree of inhibition of carrageenan-induced thermal hyperalgesia at 3 mg/kg, po administered 1 hr prior carrageenan challenge measured after 4 hrs; assay type: functional; design: scale not given: the % may be the effect or the level left
[18] = test system: Rattus norvegicus; assay: Analgesic activity against carrageenan-induced thermal hyperalgesia in po dosed rat model assessed as paw withdrawal latency; assay type: functional, organism-based
[19] = Half life in fasted Sprague-Dawley rat at 1 mg/kg, iv and 5 mg/kg, po; assay type: ADME, organism-based; conditions: in vivo
[20] = target: T1, Transient receptor potential cation channel subfamily V member 1; assay: Antagonist activity at human TRPV1 expressed in HEK293 cells assessed as inhibition of low pH-induced calcium influx; assay type: functional, cell-based
[21] = Volume of distribution at steady state in fasted Sprague-Dawley rat at 1 mg/kg, iv and 5 mg/kg, po; assay type: ADME, organism-based; conditions: in vivo, read-out: Vdss
[22] = Plasma concentration in carrageenan-induced thermal hyperalgesia rat model at 1 mg/kg, po after 5 hrs post-carrageenan injection; assay type: ADME, organism-based; design: dose 1 mg/kg, route oral
[23] = test system: Rattus norvegicus; assay: Analgesic activity in po dosed rat model assessed as inhibition of carrageenan-induced thermal hyperalgesia administered 1 hr prior carrageenan challenge; assay type: functional
[24] = Aqueous solubility in simulated gastric fluid at pH 1.2 after 3 days by HPLC; assay type: physicochemical
[25] = Plasma concentration in carrageenan-induced thermal hyperalgesia rat model at 3 mg/kg, po after 5 hrs post-carrageenan injection; assay type: ADME, organism-based; design: dose 3 mg/kg, route oral
[26] = target: T2, Transient receptor potential cation channel subfamily V member 1; assay: Displacement of [3H]RTX from rat TRPV1 expressed in HEK293 cells; assay type: cell-based
[27] = test system: Rattus norvegicus; assay: Analgesic activity in rat model assessed as inhibition of carrageenan-induced thermal hyperalgesia at 3 mg/kg, po administered 1 hr prior carrageenan challenge relative to control; assay type: functional, organism-based; design: dose 3 mg/kg
[28] = Cmax in fasted Sprague-Dawley rat at 2 mg/kg, po; assay type: ADME, organism-based; design: dose 2 mg/kg, route oral; conditions: in vivo
[29] = Volume of distribution at steady state in fasted Sprague-Dawley rat at 0.5 mg/kg, iv and 2 mg/kg, po; assay type: ADME, organism-based; conditions: in vivo, read-out: Vdss
[30] = Bioavailability in fasted Sprague-Dawley rat at 0.5 mg/kg, iv and 2 mg/kg, po; assay type: ADME, organism-based; conditions: in vivo
[31] = test system: Rattus norvegicus; assay: AUC (infinity) in fasted Sprague-Dawley rat at 2 mg/kg, po; assay type: ADME, organism-based, Plasma; design: time infinity, dose 2 mg/kg, route oral; conditions: in vivo
[32] = Clearance in fasted Sprague-Dawley rat at 0.5 mg/kg, iv and 2 mg/kg, po; assay type: ADME, organism-based; conditions: in vivo
[33] = Tmax in fasted Sprague-Dawley rat at 2 mg/kg, po; assay type: ADME, organism-based; design: dose 2 mg/kg, route oral; conditions: in vivo
[34] = Half life in fasted Sprague-Dawley rat at 0.5 mg/kg, iv and 2 mg/kg, po; assay type: ADME, organism-based; conditions: in vivo

SMILES: OCc1cc(Cl)c(Nc2nc3c(Nc4ccc(C(F)(F)F)cc4)ncnc3s2)c(Cl)c1
Cmax [28]: 200 nM | Vd [29]: 2.9 L/kg | bioavailability [30]: 45% | AUC [31]: 638 ng·h/mL | IC50 [2]: 0.5 nM | clearance [32]: 23.3 mL/min/kg | Tmax [33]: 4 h | half-life [34]: 1.8 h

SMILES: CS(=O)(=O)c1ccccc1Nc1nc2c(Nc3ccc(C(F)(F)F)cc3)ncnc2s1
IC50 [1]: 234 nM | IC50 [2]: 221 nM

SMILES: FC(F)(F)c1ccc(Nc2ncnc3sc(Nc4ccccc4C(F)(F)F)nc23)cc1
IC50 [1]: 74 nM | IC50 [2]: 37 nM

SMILES: FC(F)(F)c1ccc(Nc2ncnc3sc(Nc4cccc(C(F)(F)F)c4)nc23)cc1
IC50 [1]: > 5000 nM | IC50 [2]: > 5000 nM

SMILES: N#Cc1cc(Cl)c(Nc2nc3c(Nc4ccc(C(F)(F)F)cc4)ncnc3s2)c(Cl)c1
IC50 [1]: 95 nM | IC50 [2]: 53 nM

SMILES: Cc1cccc(C)c1Nc1nc2c(Nc3ccc(C(F)(F)F)cc3)ncnc2s1
IC50 [1]: 23 nM

SMILES: FC(F)(F)c1ccc(Nc2ncnc3sc(Nc4ccccc4Cl)nc23)cc1
IC50 [1]: 64 nM | IC50 [2]: 32 nM

SMILES: FC(F)(F)c1ccc(Nc2nc3c(Nc4ccc(C(F)(F)F)cc4)ncnc3s2)cc1
IC50 [1]: > 5000 nM

SMILES: FC(F)(F)c1ccc(Nc2ncnc3sc(Nc4c(Cl)cccc4Cl)nc23)cc1Cl
IC50 [1]: 21 nM | IC50 [2]: 9 nM

SMILES: CN(c1ccc(C(F)(F)F)cc1)c1ncnc2sc(Nc3c(Cl)cccc3Cl)nc12
IC50 [1]: > 5000 nM | IC50 [2]: > 1000 nM

SMILES: NS(=O)(=O)c1ccc(Nc2ncnc3sc(Nc4c(Cl)cccc4Cl)nc23)cc1
IC50 [1]: > 5000 nM | IC50 [2]: 590 nM

SMILES: O=S(=O)(c1ccc(Nc2ncnc3sc(Nc4c(Cl)cccc4Cl)nc23)cc1)N1CCCC1
IC50 [2]: 0.5 nM

SMILES: FC(F)(F)c1ccc(Nc2ncnc3c2CCN(c2ncccc2C(F)(F)F)C3)cc1
IC50 [1]: 15 nM | IC50 [2]: 71 nM

SMILES: CSc1ccc(Nc2ncnc3sc(Nc4c(Cl)cccc4Cl)nc23)cc1
IC50 [1]: 96 nM | IC50 [2]: 12 nM

SMILES: CN(c1nc2c(Nc3ccc(C(F)(F)F)cc3)ncnc2s1)c1c(Cl)cccc1Cl
IC50 [1]: 502 nM | IC50 [2]: 540 nM

Now from value to molecule, other results behind:

IC50 [1]: 13 nM | IC50 [2]: 9 nM
SMILES: CC(C)Nc1nc(Nc2ccc(C(F)(F)F)cc2)c2nc(Nc3c(Cl)cccc3Cl)sc2n1

AUC [4]: 10000 ng·h/mL | solubility at 72 h [6]: 2 µg/mL (≈ 4.38 µM) | CL [8]: 10 mL/min/kg | F [10]: 43% | Cmax [11]: 1100 nM | concentration at 5 h [12]: 3050 nM | concentration at 5 h [13]: 10 nM | IC50 [14]: 6 nM | Tmax [15]: 2 h | fold change (FC) [16]: 6 | half-life [19]: 2.2 h | IC50 [20]: 19 nM | Vd [21]: 1.6 L/kg | concentration at 5 h [22]: 58 nM | solubility at 72 h [24]: ≤ 1 µg/mL | concentration at 5 h [25]: 428 nM | Ki [26]: 4 nM
SMILES: FC(F)(F)c1ccc(Nc2ncnc3sc(Nc4c(Cl)cccc4Cl)nc23)cc1
Activity [3]: Active | Activity [5]: Active | Activity [7]: Active | Activity [9]: inactive | Activity [17]: 57% | Activity [18]: inactive | ED50 [23]: 0.5 mg/kg | Activity [27]: Active

IC50 [1]: 11 nM
SMILES: CC(C)(C)c1ccc(Nc2ncnc3sc(Nc4c(Cl)cccc4Cl)nc23)cc1

IC50 [2]: 119 nM
SMILES: CC(C)N1CCN(c2nc(Nc3ccc(C(F)(F)F)cc3)c3nc(Nc4c(Cl)cccc4Cl)sc3n2)CC1

IC50 [2]: 2 nM
SMILES: Cc1nc(Nc2ccc(C(F)(F)F)cc2)c2nc(Nc3c(Cl)cccc3Cl)sc2n1

IC50 [1]: 680 nM | IC50 [2]: 864 nM
SMILES: FC(F)(F)c1ccc(Nc2ncnc3nc(Nc4c(Cl)cccc4Cl)sc23)cc1

IC50 [1]: 48 nM | IC50 [2]: 34 nM
SMILES: CCN(CC)c1nc(Nc2ccc(C(F)(F)F)cc2)c2nc(Nc3c(Cl)cccc3Cl)sc2n1

IC50 [1]: > 5000 nM | IC50 [2]: > 5000 nM
SMILES: FC(F)(F)c1ccc(Nc2nc(N3CCNCC3)nc3sc(Nc4c(Cl)cccc4Cl)nc23)cc1

IC50 [1]: 224 nM | IC50 [2]: 113 nM
SMILES: CSc1nc(Nc2ccc(C(F)(F)F)cc2)c2nc(Nc3c(Cl)cccc3Cl)sc2n1

IC50 [1]: 274 nM | IC50 [2]: 77 nM
SMILES: CS(=O)(=O)c1nc(Nc2ccc(C(F)(F)F)cc2)c2nc(Nc3c(Cl)cccc3Cl)sc2n1

IC50 [1]: 59 nM | IC50 [2]: 43 nM
SMILES: CN(C)c1nc(Nc2ccc(C(F)(F)F)cc2)c2nc(Nc3c(Cl)cccc3Cl)sc2n1

IC50 [1]: 539 nM | IC50 [2]: 104 nM
SMILES: FC(F)(F)c1ccc(Nc2nc(-c3ccccc3)nc3sc(Nc4c(Cl)cccc4Cl)nc23)cc1
